Test results as given in patent US10947188B2, “Small molecule ferroptosis inducers” (THE TRUSTEES OF COLUMBIA UNIVERSITY IN THE CITY OF NEW YORK, priority 2016, dated 2021).
Converted amounts (≈) assume the structure as drawn.

Legend:
[1] = tested on: HT-1080 cells; test: Cell viability assay (Alamar Blue), lethal compounds with or without modulators; type: cell-based; conditions: for effect on FIN56 lethality: modulator cotreatment or pretreatment
Protocol: 1,000 cells per 36 μl were seeded in each well in 384-well plates. Lethal compounds were dissolved, and a twofold, 12-point dilution series was prepared in DMSO. Compound solutions were further diluted with media at 1:25, and 4 μl per well of the diluted solutions was added to cell cultures immediately after cells were seeded. […] When other cell-death-modulating compounds (100 nM sodium selenite, 1 μM cerivastatin, 100 μg/mL mevalonic acid) were used in cotreatments, they were supplemented to cell culture for 24 h before lethal compounds were added to cell culture, after which cells were further incubated for 24 h at 37° C. under 5% CO2. On the day of the viability measurement, we added 10 μl per well of 50% Alamar Blue diluted in media (Life Technologies) and further incubated the cells at 37° C. for 6 h. Fluorescence intensity (excitation/emission: 530/590) was measured with a Victor 3 plate reader (PerkinElmer), and the normalized viability was calculated as VL=(IL−I0)/(IV−I0), where VL, I0, IV, and IL are the normalized viability and the raw fluorescence intensities from the wells containing media, cells treated with a vehicle (negative control), and cells with the lethal compound (L), respectively. When the effect of a chemical modulator (M) on L was calculated, we instead used the equation VL|M=(IM,L−I0)/(IM,V−I0), where VL|M, IM,L and IM,V are the normalized viability, and fluorescence intensity from cells treated with […], respectively. The viability was typically measured in biological triplicate unless otherwise specified. A representative dose-response curve, the mean and standard error of normalized viability from one replicate were plotted. […]

[2] = tested on: HT-1080 cells; test: Lethality of commercially available CIL41/70 structural analogs; type: cell-based; conditions: tested once in technical triplicates; for EC50: Homo sapiens
Protocol: 1,000 cells per 36 μl were seeded in each well in 384-well plates. Lethal compounds were dissolved, and a twofold, 12-point dilution series was prepared in DMSO. Compound solutions were further diluted with media at 1:25, and 4 μl per well of the diluted solutions was added to cell cultures immediately after cells were seeded. […] When other cell-death-modulating compounds (100 nM sodium selenite, 1 μM cerivastatin, 100 μg/mL mevalonic acid) were used in cotreatments, they were supplemented to cell culture for 24 h before lethal compounds were added to cell culture, after which cells were further incubated for 24 h at 37° C. under 5% CO2. On the day of the viability measurement, we added 10 μl per well of 50% Alamar Blue diluted in media (Life Technologies) and further incubated the cells at 37° C. for 6 h. Fluorescence intensity (excitation/emission: 530/590) was measured with a Victor 3 plate reader (PerkinElmer), and the normalized viability was calculated as VL=(IL−I0)/(IV−I0), where VL, I0, IV, and IL are the normalized viability and the raw fluorescence intensities from the wells containing media, cells treated with a vehicle (negative control), and cells with the lethal compound (L), respectively. When the effect of a chemical modulator (M) on L was calculated, we instead used the equation VL|M=(IM,L−I0)/(IM,V−I0), where VL|M, IM,L and IM,V are the normalized viability, and fluorescence intensity from cells treated with […], respectively. The viability was typically measured in biological triplicate unless otherwise specified. A representative dose-response curve, the mean and standard error of normalized viability from one replicate were plotted. HT-1080 viability after modulator treatments corresponding to FIG. 3C and FIGS. 5E-5F is available in FIGS. 19A-19C.
Their lethality was tested once in HT-1080 cells in technical triplicates.

| SMILES | EC50 [2] [µg/mL] | further results |
| --- | --- | --- |
| C=C(CC[C@]12O[C@H](C(=O)O)[C@@](O)(C(=O)O)[C@](C(=O)O)(O1)[C@H](OC(=O)/C=C/[C@@H](C)C[C@@H](C)CC)[C@H]2O)[C@@H](OC(C)=O)[C@H](C)Cc1ccccc1 [zaragozic acid A] | – | effect on FIN56 lethality ([1]; HT-1080 cells): suppressed FIN56 lethality |
| F/C(COc1ccc2c(c1)[nH]c1ccccc12)=C1/CN2CCC1CC2 [YM-53601] | – | effect on FIN56 lethality ([1]; HT-1080 cells): suppressed FIN56 lethality |
| N[C@@H]1CCCN(c2c(/C=C3\SC(=O)NC3=O)cccc2-c2ccccc2)C1 [AZD-1208] | – | effect of ferroptosis inhibitors (α-tocopherol, deferoxamine) on lethality ([1]; HT-1080 cells, cotreatment): the lethality was not suppressed by αToc |
| O=S(=O)(NC1CCOCC1)c1ccc2c(c1)C(=NO)c1cc(S(=O)(=O)NC3CCOCC3)ccc1-2 [SRS8-18, 9-(hydroxyimino)-N2,N7-bis(tetrahydro-2H-pyran-4-yl)-9H-fluorene-2,7-disulfonamide] | – | ferroptosis-inducing activity of FIN56 analogs ([1]; HT-1080, 48 hrs): complete loss of activity |
| COc1ccccc1C/C(N)=N/OC(=O)c1ccc2c(c1)OCO2 [A05] | 5.04 (≈ 15.4 µM) | – |
| Cc1ccc(CC(=O)O/N=C(\N)Cc2ccc(Cl)cc2Cl)cc1 [CB142] | > 20 | – |
| N/C(Cc1ccc([N+](=O)[O-])cc1)=N\OC(=O)COc1ccc(Cl)cc1Br [CB144] | > 20 | – |
| Cc1ccccc1OCC(=O)O/N=C(\N)Cc1cccs1 [CB21] | > 20 | – |
| N/C(Cc1ccc([N+](=O)[O-])cc1)=N\OC(=O)CCCc1ccccc1 [CB77] | > 20 | – |
| N/C(Cc1cccs1)=N\OC(=O)COc1ccc(Br)cc1Cl [CB78] | > 20 | – |
| N/C(Cc1ccc([N+](=O)[O-])cc1)=N\OC(=O)Cc1ccc(Cl)cc1 [CB9] | > 20 | – |
| COc1ccc(C/C(N)=N/OC(=O)COc2ccc3ccccc3c2)cc1 [CB53] | > 20 | – |
| CC(C)c1ccc(OCC(=O)O/N=C(\N)Cc2ccc([N+](=O)[O-])cc2)c(Br)c1 [CB130] | > 20 | – |
| CCC(C(=O)O/N=C(\N)Cc1cccc2ccccc12)c1ccccc1 (stereo not shown) [CB111] | 10.7 (≈ 30.9 µM) | – |
| Cc1cccc(OCC(=O)O/N=C(/N)Cn2nc(C)c([N+](=O)[O-])c2C)c1 [ZE13] | > 20 | – |
| CC(C)(C)C(=O)O/N=C(\N)COc1ccc(C(C)(C)C)cc1 [MB14] | 2.6 (≈ 8.49 µM) | – |
| N/C(Cc1cccs1)=N\OC(=O)C12CC3CC(CC(C3)C1)C2 [CB69] | 2.09 (≈ 6.56 µM) | – |
| COc1ccc(OCC(=O)O/N=C(\N)Cc2ccc(Cl)cc2Cl)cc1 [CB72] | > 20 | – |
| N/C(Cc1ccc([N+](=O)[O-])cc1)=N\OC(=O)COc1ccc(Br)cc1Cl [CB76] | > 20 | – |
| Cc1cc(OCC(=O)O/N=C(\N)Cc2ccc([N+](=O)[O-])cc2)ccc1Cl [CB71] | > 20 | – |
| Cc1cccc(OCC(=O)O/N=C(\N)Cc2ccc([N+](=O)[O-])cc2)c1C [CB118] | > 20 | – |
| Cc1nn(C/C(N)=N\OC(=O)COc2cc(Cl)ccc2Cl)c(C)c1[N+](=O)[O-] [ZE14] | > 20 | – |
| COc1ccc(C/C(N)=N/OC(=O)COc2ccc(C)c(C)c2)cc1 [CB91] | > 20 | – |
| COc1ccccc1C/C(N)=N/OC(=O)COc1ccccc1C [CB33] | > 20 | – |

| SMILES | EC50 [2] [µg/mL] | further results |
| --- | --- | --- |
| Cc1cccc(OCC(=O)O/N=C(\N)Cc2ccc(Cl)cc2)c1 [CB34] | > 20 | – |
| N/C(Cc1cccs1)=N\OC(=O)COc1ccc(Cl)cc1Cl [CB75] | > 20 | – |
| COc1ccc(C/C(N)=N/OC(=O)COc2ccc(Br)c(C)c2)cc1OC [CB36] | > 20 | – |
| Cc1cc(OCC(=O)O/N=C(\N)Cc2ccc(Cl)cc2Cl)cc(C)c1Br [CB106] | > 20 | – |
| CC(=NOCC(=O)ON=C(N)COc1cccc(Cl)c1)c1ccc(Cl)cc1 [MB3] | – | EC50 of CIL41/70 and structural analogs (lethality) [2]: MB3 (>20 ug/mL) |
| Cc1ccc(OCC(=O)O/N=C(\N)Cc2ccc([N+](=O)[O-])cc2)c(Br)c1 [CB25] | > 20 | – |
| N/C(Cc1cccc2ccccc12)=N\OC(=O)CSc1ccccc1 [CB131] | > 20 | – |
| CCC(C(=O)O/N=C(\N)Cc1ccc(Cl)cc1Cl)c1ccccc1 (stereo not shown) [CB98] | 4.46 (≈ 12.2 µM) | – |
| CC(C)(Oc1ccc(Cl)cc1)C(=O)O/N=C(\N)Cc1ccc(Cl)cc1Cl [CB119] | > 20 | – |
| CC(=O)O/N=C(N)\C(=N/Nc1ccccc1)[N+](=O)[O-] [CB145] | > 20 | – |
| N/C(Cc1ccc(Cl)cc1)=N\OC(=O)C(c1ccccc1)c1ccccc1 [VM1] | 2 (≈ 5.28 µM) | – |
| COc1ccccc1C/C(N)=N/OC(=O)/C=C/c1ccccc1 [CB62] | 8.63 (≈ 27.8 µM) | – |
| N/C(Cc1ccc(Cl)cc1Cl)=N\OC(=O)CC1CCCCC1 [CB128] | > 20 | – |
| N/C(Cc1cccs1)=N\OC(=O)COc1ccccc1 [CB24] | > 20 | – |
| N/C(Cc1ccc(-c2csnn2)cc1)=N\OC(=O)C1CC1 [MB7] | > 20 | – |
| Cc1ccc(OCC(=O)O/N=C(\N)Cc2cccs2)c(Br)c1 [CB23] | > 20 | – |
| N/C(Cc1cccc2ccccc12)=N\OC(=O)COc1ccccc1Cl [CB73] | > 20 | – |
| N/C(Cc1ccc([N+](=O)[O-])cc1)=N\OC(=O)CC1CCCCC1 [CB83] | > 20 | – |
| Cc1cccc(OCC(=O)O/N=C(\N)Cc2ccc(Cl)cc2Cl)c1 [CB35] | > 20 | – |
| N/C(Cc1ccc(Cl)cc1Cl)=N\OC(=O)Cc1ccccc1 [CB127] | > 20 | – |
| COc1ccc(CC(=O)O/N=C(\N)Cc2ccc(Cl)c(Cl)c2)cc1OC [CB143] | > 20 | – |
| N/C(Cn1c(C(F)(F)F)nc2ccccc21)=N\OC(=O)CC1CC2CCC1C2 (stereo not shown) [ZE11] | > 20 | – |
| N/C(Cc1ccc(Cl)cc1)=N\OC(=O)COc1ccc(Br)cc1 [CB42] | > 20 | – |
| CC(C)c1ccc(OCC(=O)O/N=C(\N)Cc2ccc(Cl)cc2Cl)cc1 [CB88] | > 20 | – |

| SMILES | EC50 [2] [µg/mL] | further results |
| --- | --- | --- |
| Cc1cccc(OCC(=O)O/N=C(\N)Cc2cccs2)c1 [CB40] | > 20 | – |
| CCC(=O)O/N=C(/N)Cn1nc(C(F)(F)F)cc1C [ZE6] | > 20 | – |
| N/C(Cc1ccc([N+](=O)[O-])cc1)=N\OC(=O)Cc1ccccc1 [CB80] | > 20 | – |
| Cc1ccc(OCC(=O)O/N=C(\N)Cc2ccc([N+](=O)[O-])cc2)c(C)c1 [CB16] | > 20 | – |
| COc1ccc(OCC(=O)O/N=C(\N)Cc2cccs2)cc1 [CB74] | > 20 | – |
| CC(=O)O/N=C(\N)Cc1csc2ccc(Cl)cc12 [MB5] | > 20 | – |
| COc1ccccc1OCC(=O)O/N=C(\N)Cc1ccc(Cl)cc1Cl [CB101] | > 20 | – |
| COc1ccccc1C/C(N)=N/OC(=O)COc1cccc(C)c1 [CB26] | > 20 | – |
| CCc1ccc(OCC(=O)O/N=C(\N)Cc2cccc3ccccc23)cc1 [CB81] | > 20 | – |
| Cc1cc(Br)ccc1OCC(=O)O/N=C(\N)Cc1ccc([N+](=O)[O-])cc1 [CB104] | > 20 | – |
| Cc1cc(C)c(C)c(OCC(=O)O/N=C(\N)Cc2cccc3ccccc23)c1 [CB121] | > 20 | – |
| N/C(Cc1ccc([N+](=O)[O-])cc1)=N\OC(=O)CCC1CCCCC1 [CB96] | > 20 | – |
| COc1ccccc1C/C(N)=N/OC(=O)COc1cc(C)c(Cl)c(C)c1 [CB49] | 7.23 (≈ 19.2 µM) | – |
| Cc1ccc(OCC(=O)O/N=C(\N)Cc2ccc(Cl)cc2Cl)cc1C [CB87] | > 20 | – |
| COc1ccc(CC(=O)O/N=C(\N)Cc2ccc(OC)cc2)cc1 [CB84] | > 20 | – |
| N/C(Cc1ccc([N+](=O)[O-])cc1)=N\OC(=O)C1CCCCC1 [CB2] | > 20 | – |
| N/C(Cc1ccc(Cl)cc1)=N\OC(=O)C1CCCCC1 [CB58] | 17.6 (≈ 59.7 µM) | – |
| COc1ccc(C/C(N)=N/OC(=O)COc2ccc(C)cc2Br)cc1 [CB47] | > 20 | – |
| CCC(Oc1ccccc1)C(=O)O/N=C(\N)Cc1ccc([N+](=O)[O-])cc1 (stereo not shown) [CB136] | > 20 | – |
| COc1ccc(C/C(N)=N/OC(=O)CCc2ccccc2)cc1 [CB63] | > 20 | – |
| COc1ccc(/C=C(\C#N)C(=O)O/N=C2\CCCCCN2)cc1 [EN1] | > 20 | – |
| CC(Oc1cccc(Cl)c1)C(=O)O/N=C(\N)Cc1cccc2ccccc12 (stereo not shown) [CB134] | > 20 | – |
